Measurements: ChEMBL document CHEMBL1201862, “PubChem BioAssay data set” (2004)
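Five compound concentrations were applied to cells in 96-well plates for 48 hours; endpoints were derived by simple linear interpolation of the resulting dose-response curve. GI50 marks 50% less growth.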 Active and inactive are the calls of the source. Cut-off read from the data, not from the text of the source: active = GI50 up to about 1.1 µM and inactive = higher.

Key:
Assay in all cases: inhibition of tumour cell growth, NCI panel, 48 h
BT-549 = tested on: BT-549
CAKI-1 = tested on: CAKI-1
HCT-116 = tested on: HCT-116
M14 = tested on: M14
OVCAR-5 = tested on: OVCAR-5
SF-539 = tested on: SF-539
SNB-19 = tested on: SNB-19
SNB-75 = tested on: SNB-75
UO-31 = tested on: UO-31

Measured: GI50

COc1cccc2c1[C@H](OC)[C@]13O[C@@]1(C2=O)[C@H](O)[C@H](C)[C@@](O)(C(=O)[C@@H]1O[C@H]1C)[C@@H]3O
active: BT-549 289 nM | CAKI-1 273 nM | HCT-116 318 nM | M14 221 nM | OVCAR-5 297 nM | SF-539 271 nM | SNB-19 286 nM | SNB-75 233 nM | UO-31 249 nM
